Results published in US4596806A, “7-piperidino-1,2,3,5-tetrahydroimidazo[2,1-b]-quinazolin-2-one having platelet aggregation inhibitory activity” (Daiichi Seiyaku Co., Ltd., priority 1983, dated 1986).
Where two headings read alike, the source gives them in different places.

Columns and labels:
[1] = system: platelet aggregation; assay: Test of Platelet Aggregation Inhibition (in vitro), human PRP; format: cell-based; conditions: for IC50: Homo sapiens, Platelet, human blood, read-out: Platelet Aggregation Inhibitory Activity (in vitro: IC50)
Procedure: The test was performed as follows in accordance with the method of Ashida et al, Thrombosis and Haemostasis, Vol. 40, p542 (1979).
Blood was taken by puncture from the heart of a Wistar Imamichi rat under anesthesia with pentobarbital into a syringe containing 1/10 volume of a 3.13% aqueous solution of sodium citrate dihydrate, and the citrated blood was centrifuged to obtain a platelet-rich-plasma (PRP). In the same manner, citrated blood was collected from the vein of a healthy human who had not taken aspirin or any other anti-inflammatory agent since before 10 days, followed by centrifugation to obtain PRP. 0.005 ml of each test compound was added to 0.445 ml each of these PRP samples, and the system was warmed at 30° C. for 1 minute. 0.05 ml of an aggregation inducer (ADP or collagen) was then added thereto, and platelet aggregation was determined according to the method of Born, Nature, Vol. 194, p927 (1962). The inhibitory activity of platelet aggregation was expressed in terms of 50% inhibition concentration, and the results obtained are shown in Table 2.

[2] = system: circulatory system; assay: Test of Influence on Circulatory System (blood pressure, heart beat); format: in vivo, rat (male normal SLC-Wistar); conditions: p.o. 50 mg/Kg
Procedure: 5 or 6 male normal SLC-Wistar rats per group (body weight: 205-255 g) orally received 50 mg/Kg of the test compound, and the blood pressure (tail cuff method) and the heart beats were measured with the passage of time in order to elucidate influences of the test compound on the circulatory system.

[3] = system: pancreatic juice secretion; assay: Test of Stimulation on Pancreatic Juice Secretion in Dog; format: in vivo, dog (adult mongrel); conditions: for total output amount of bicarbonate ions as compared with the control: 30 minutes after administration; for Pancreatic Juice Secretion, Total: total 0-60 min; for total volume of pancreatic juice as compared with the control (100%): total after 60 minutes
Procedure: Adult mongrel dogs (male and female) having a body weight of 11.8 to 15.8 Kg were anesthetized with Nembutal and Phenobal and a cannula was inserted into pancreatic duct. A solution of Compound (I) dissolved in a physiological saline solution was administered intravenously from femoral vein at a dose of 0.5 ml/Kg. The volume of pancreatic juice was determined in a polyethylene tube connected to the cannula, and the bicarbonate ion concentration in the pancreatic juice was determined by neutralization titration. As a control, a physiological saline solution was administered intravenously.

[4] = system: 3LL-induced aggregation; assay: Test of Inhibition of Platelet Aggregation Caused by Cancer Cells (ex vivo), 3LL; format: in vivo, C57BL/6 mouse
Procedure: The compound of the invention (dihydrochloride monohydrate) dissolved in a physiological saline solution (J.P.) was intravenously or orally administered to a 7-week-old C57BL/6 male mouse (body weight: about 20 g). Three minutes after the intravenous administration or 1 hour later from the oral administration, blood was taken from the abdominal vein into a syringe containing 1/10 volume of a 3.13% aqueous solution of sodium citrate dihydrate and PRP was prepared as described before in Test Example 6. The PRP was placed in a reaction tube under the same conditions as in Test Example 6, and 5 μl of a 200 mM calcium chloride aqueous solution was added thereto. One minute later, 50 μl of a B16BL6 (5×10^4 cells/50 μl)- or a 3LL (2×10^6 cells/50 μl)-cell suspension was added to the system. In the same manner as in Test Example 6, platelet aggregation was determined.

[5] = system: platelet aggregation; assay: Test of Platelet Aggregation Inhibition (ex vivo; i.v.); parameters: species or system rat (male Wistar-Imamichi); conditions: Rattus norvegicus, iv, 0.25 h, 15 min, read-out: Platelet Aggregation Inhibitory Activity (in vivo: % inhibition); for inhibition at 0.02 mg/kg: i.v. 0.02 mg/Kg/min; for inhibition at 0.067 mg/kg: i.v. 0.067 mg/Kg/min
Procedure: As test animals, 5 male Wistar-Imamichi rats (body weight: about 270 g) that had been allowed food and water ad libitum were used per group. The test compound was dissolved in a physiological saline solution (J.P.) and continuously injected to the rats under anesthesia with pentobarbital through the femoral vein. 15 minutes later, citrated blood was taken from the heart, and platelet aggregation was determined in the same manner as in Test Example 2.

[6] = LD50 (probit method), mouse; conditions: in vivo, iv
[7] = system: platelet aggregation; assay: Test of Platelet Aggregation Inhibition (ex vivo, p.o.); format: in vivo, rat (male Wistar Imamichi); conditions: for inhibition at 1 mg/kg / inhibition at 10 mg/kg: Rattus norvegicus, Platelet, po, 1 h, read-out: Platelet Aggregation Inhibitory Activity (ex vivo: % inhibition); for inhibition at 1 mg/kg: p.o. 1 mg/Kg; for inhibition at 10 mg/kg: p.o. 10 mg/Kg
Procedure: One hour later, citrated blood was taken from the heart, and platelet aggregation was determined in the same manner as described in Test Example 2.

O=C1CN2Cc3cc(N4CCCCC4)ccc3N=C2N1 [Compound (I), 7-piperidino-1,2,3,5-tetrahydroimidazo[2,1-b]quinazolin-2-one]
IC50 ([1]; inducer ADP): 2500 nM
IC50 ([1]; inducer collagen): 530 nM
anti-platelet aggregation activity (in words) ([1]; in vitro, Table 2 results (human and rat PRP)): substantially equal to that of BL-3459 and BL-4162
reduction in blood pressure and increase in heart beat (in words) [2]: relatively small and also these changes can be restored in short periods of time
Increase in Heart Beat ([2]; 1 hr after admin.): 27%
Reduction in Blood Pressure ([2]; 1 hr after admin.): 18%
Increase in Heart Beat ([2]; 2 hr after admin.): 32%
Reduction in Blood Pressure ([2]; 2 hr after admin.): 12%
Increase in Heart Beat ([2]; 3 hr after admin.): 27%
Reduction in Blood Pressure ([2]; 3 hr after admin.): 12%
Increase in Heart Beat ([2]; 5 hr after admin.): 25%
Reduction in Blood Pressure ([2]; 5 hr after admin.): 12%
Increase in Heart Beat ([2]; 6 hr after admin.): 17%
Reduction in Blood Pressure ([2]; 6 hr after admin.): 9%
total output amount of bicarbonate ions as compared with the control ([3]; 300 μg/Kg): 198%
bicarbonate ion concentration in pancreatic juice as compared with the control ([3]; 1000 μg/Kg): 266%
total output amount of bicarbonate ions as compared with the control ([3]; 1000 μg/Kg): 674%
bicarbonate ion concentration in pancreatic juice as compared with the control ([3]; i.v. 100 μg/Kg): 109%
total output amount of bicarbonate ions as compared with the control ([3]; i.v. 100 μg/Kg): 116%
Amount of Bicarbonate Ion Secretion ([3]; i.v. 100 μg/kg): 44.6 ± 9.3 µEq/h
Bicarbonate Ion Concentration ([3]; i.v. 100 μg/kg): 44.5 ± 6.1 mEq/l
activity on the pancreatic juice secretion (in words) ([3]; i.v. 100 μg/kg): did not show any significant activity
Pancreatic Juice Secretion ([3]; i.v. 100 μg/kg, 0-15 min): 323 ± 81 µL
Pancreatic Juice Secretion ([3]; i.v. 100 μg/kg, 15-30 min): 223 ± 45 µL
Pancreatic Juice Secretion ([3]; i.v. 100 μg/kg, 30-45 min): 178 ± 31 µL
Pancreatic Juice Secretion ([3]; i.v. 100 μg/kg, 45-60 min): 226 ± 48 µL
Pancreatic Juice Secretion, Total ([3]; i.v. 100 μg/kg): 950 ± 185 µL
bicarbonate ion concentration in pancreatic juice as compared with the control ([3]; i.v. 300 μg/Kg): 130%
total volume of pancreatic juice as compared with the control (100%) ([3]; i.v. 300 μg/Kg): 161%
Amount of Bicarbonate Ion Secretion ([3]; i.v. 300 μg/kg): 65.9 ± 9.6 µEq/h
Bicarbonate Ion Concentration ([3]; i.v. 300 μg/kg): 45.8 ± 2.1 mEq/l
Pancreatic Juice Secretion ([3]; i.v. 300 μg/kg, 0-15 min): 521 ± 112 µL
Pancreatic Juice Secretion ([3]; i.v. 300 μg/kg, 15-30 min): 321 ± 53 µL
Pancreatic Juice Secretion ([3]; i.v. 300 μg/kg, 30-45 min): 291 ± 44 µL
Pancreatic Juice Secretion ([3]; i.v. 300 μg/kg, 45-60 min): 310 ± 31 µL
pancreatic juice secretion as compared with the control (100%) ([3]; i.v. 300 μg/kg, after 15 minutes): 214%
Pancreatic Juice Secretion, Total ([3]; i.v. 300 μg/kg): 1444 ± 214 µL
total volume of pancreatic juice as compared with the control (100%) ([3]; i.v. 1000 μg/Kg): 254%
Amount of Bicarbonate Ion Secretion ([3]; i.v. 1000 μg/kg): 224 ± 24.7 µEq/h
Bicarbonate Ion Concentration ([3]; i.v. 1000 μg/kg): 79.8 ± 5.6 mEq/l
Pancreatic Juice Secretion ([3]; i.v. 1000 μg/kg, 0-15 min): 1363 ± 117 µL
Pancreatic Juice Secretion ([3]; i.v. 1000 μg/kg, 15-30 min): 573 ± 69 µL
Pancreatic Juice Secretion ([3]; i.v. 1000 μg/kg, 30-45 min): 455 ± 100 µL
Pancreatic Juice Secretion ([3]; i.v. 1000 μg/kg, 45-60 min): 414 ± 112 µL
pancreatic juice secretion as compared with the control (100%) ([3]; i.v. 1000 μg/kg, after 15 minutes): 440%
pancreatic juice secretion as compared with the control (100%) ([3]; i.v. 1000 μg/kg, after 30 minutes): 202%
Pancreatic Juice Secretion, Total ([3]; i.v. 1000 μg/kg): 2805 ± 225 µL
delay of 3LL-induced aggregation (ex vivo) ([4]; 10 mg/kg (i.v.)): ≥ 150%
inhibition of 3LL-induced aggregation (ex vivo) ([4]; 30 mg/kg (i.v.)): completely inhibited
inhibition at 0.02 mg/kg ([5]; inducer ADP): 11%
inhibition at 0.02 mg/kg ([5]; inducer collagen): 86%
inhibition at 0.067 mg/kg ([5]; inducer ADP): 37%
inhibition at 0.067 mg/kg ([5]; inducer collagen): 100%
LD50 ([6]; female ddy mouse): 380 mg/kg
LD50 ([6]; male ddy mouse): 314 mg/kg
inhibition at 1 mg/kg ([7]; inducer ADP): 16.8%
inhibition at 1 mg/kg ([7]; inducer collagen): 20.6%
inhibition at 10 mg/kg ([7]; inducer ADP): 33.8%
inhibition at 10 mg/kg ([7]; inducer collagen): 59.5%
aggregation inhibitory activity ex vivo (in words) ([7]; p.o. 10 mg/Kg or 1 mg/Kg, ADP- or collagen-induced): significant aggregation inhibitory activity
